Results: US9932309B2, “2-oxo-3,4-dihydropyridine-5-carboxylates and their use” (UNIVERSITE DE LILLE 2 DROIT ET SANTE, priority 2014, dated 2018)

Experiments:
hTGR5 = biological target: T1, hTGR5 (Homo sapiens, UniProt Q8TDU6); assay: TGR5/CRE Luciferase Assay (hTGR5); format: cell-based; conditions: for EC50: HEK 293 cells co-transfected with pCMV tag4b-TGR5h and pCRE TA-Luciferase, overnight incubation; for hTGR5 % trans: percentage of the 10 μM LCA value, HEK 293 cells transfected with hTGR5
T1 construct: expressed in transfected cells; host or cells: HEK293 cells, transiently co-transfected with the pCRE TA-Luciferase reporter
T1 sequence (Q8TDU6 1-330): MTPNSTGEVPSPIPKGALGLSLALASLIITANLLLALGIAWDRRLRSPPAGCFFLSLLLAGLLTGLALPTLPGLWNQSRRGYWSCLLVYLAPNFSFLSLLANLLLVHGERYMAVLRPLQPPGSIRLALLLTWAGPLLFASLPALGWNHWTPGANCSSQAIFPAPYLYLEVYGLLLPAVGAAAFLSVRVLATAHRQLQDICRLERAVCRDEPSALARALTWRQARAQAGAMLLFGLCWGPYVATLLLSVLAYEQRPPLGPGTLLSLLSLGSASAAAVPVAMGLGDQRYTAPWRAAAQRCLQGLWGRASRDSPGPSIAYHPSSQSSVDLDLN
Outline: (§1)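 cAMP-dependent luciferase luminescence was measured after overnight compound exposure (duplicate concentration series) and fitted to a four-parameter logistic equation. Cells: HEK293 transiently co-expressing hTGR5 or mTGR5 with a CRE reporter; lithocholic acid at 10 μM was the reference agonist.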

mTGR5 = biological target: T2, mTGR5 (Mus musculus, UniProt Q80SS6); assay: TGR5/CRE Luciferase Assay (mTGR5); format: cell-based; conditions: for EC50: HEK 293 cells co-transfected with pCMV AC6-TGR5m and pCRE TA-Luciferase, overnight incubation; for mTGR5 % trans: percentage of the 10 μM LCA value, HEK 293 cells transfected with mTGR5
T2 construct: expressed in transfected cells; host or cells: HEK293 cells, transiently co-transfected with the pCRE TA-Luciferase reporter
T2 sequence (Q80SS6 1-329): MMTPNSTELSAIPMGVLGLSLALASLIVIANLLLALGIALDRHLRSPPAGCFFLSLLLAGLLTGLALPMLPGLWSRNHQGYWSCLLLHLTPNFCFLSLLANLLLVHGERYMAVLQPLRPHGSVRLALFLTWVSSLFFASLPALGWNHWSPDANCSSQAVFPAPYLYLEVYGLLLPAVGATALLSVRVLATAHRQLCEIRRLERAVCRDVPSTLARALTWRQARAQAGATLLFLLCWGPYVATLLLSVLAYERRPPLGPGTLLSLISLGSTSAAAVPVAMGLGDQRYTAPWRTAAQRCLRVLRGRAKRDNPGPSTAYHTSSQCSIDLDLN
Outline: as §1

Compound	EC50 (hTGR5) [nM]	hTGR5 % trans (hTGR5) [%]	EC50 (mTGR5) [nM]	mTGR5 % trans (mTGR5) [%]
O=C(OCc1ccccc1)C1=CN(CC2CC2)C(=O)CC1c1ccc(Cl)cc1 (stereo not shown) [Compound 29, Benzyl 4-(4-chlorophenyl)-1-(cyclopropylmethyl)-2-oxo-3,4-dihydropyridine-5-carboxylate]	1260	59	1500	37
COCCN1C=C(C(=O)OCc2ccccc2)C(c2ccc(Cl)cc2)CC1=O (stereo not shown) [Compound 32, Benzyl 4-(4-chlorophenyl)-1-(2-methoxyethyl)-2-oxo-3,4-dihydropyridine-5-carboxylate]	600	77	1100	55
CC1=C(C(=O)OCc2ccc(F)cc2Cl)C(c2ccc(Cl)cc2)CC(=O)N1C (stereo not shown) [Example 81, (2-chloro-4-fluoro-phenyl)methyl 4-(4-chlorophenyl)-1,6-dimethyl-2-oxo-3,4-dihydropyridine-5-carboxylate]	500	86	1300	62
COc1ccccc1[C@H](C)OC(=O)C1=C(C)N(C[C@H]2CCCO2)C(=O)C[C@H]1c1ccc(Cl)cc1 [Example 138, 1-(2-methoxyphenyl)ethyl (4S)-4-(4-chlorophenyl)-6-methyl-2-oxo-1-[[(2R)-tetrahydrofuran-2-yl]methyl]-3,4-dihydropyridine-5-carboxylate]	380	70	1110	36
COc1ccccc1COC(=O)C1=C(C)N(C[C@@H]2CCCO2)C(=O)C[C@@H]1c1ccc(Cl)nc1 [Example 162, (2-M ethoxyphenyl)-methyl-(4R)-4-(6-chloro-3-pyridyl)-6-methyl-2-oxo-1-[[(2S)-tetrahydrofuran-2-yl]methyl]-3,4-dihydropyridine-5-carboxylate]	320	92		86
CC1=C(C(=O)OCc2ccccc2OCCS(=O)(=O)O)[C@@H](c2ccc(Cl)nc2)CC(=O)N1C[C@@H]1CCCO1.N (racemic) [Example 158, Ammonium, 2-[2-[[(4S)-4-(6-chloro-3-pyridyl)-6-methyl-2-oxo-1-[[(2R)-tetrahydrofuran-2-yl]methyl]-3,4-dihydropyridine-5-carbonyl]oxymethyl]phenoxy]ethanesulfonate and ammonium,2-[2-[[(4R)-4-(6-chloro-3-pyridyl)-6-methyl-2-oxo-1-[[(2S)-tetrahydrofuran-2-yl]methyl]-3,4-dihydropyridine-5-carbonyl]oxymethyl]phenoxy]ethanesulfonate]	3600	74	1300	97
COCCN1C(=O)CC(c2ccc(Cl)cc2)C(C(=O)OCc2cccc(OC)c2)=C1C (stereo not shown) [Example 103, (3-methoxyphenyl)methyl 4-(4-chlorophenyl)-1-(2-methoxyethyl)-6-methyl-2-oxo-3,4-dihydropyridine-5-carboxylate]	500	85	400	95
COCCN1C(=O)CC(c2ccc(-c3ccccc3)cc2)C(C(=O)OCc2ccccc2)=C1C (stereo not shown) [Example 123, Benzyl 1-(2-methoxyethyl)-6-methyl-2-oxo-4-(4-phenylphenyl)-3,4-dihydropyridine-5-carboxylate]	1400	17	2800	10
COCCN1C(=O)CC(c2ccc(Cl)cc2Cl)C(C(=O)OCc2ccccc2OC)=C1C (stereo not shown) [Example 129, (2-methoxyphenyl)methyl 4-(2,4-dichlorophenyl)-1-(2-methoxyethyl)-6-methyl-2-oxo-3,4-dihydropyridine-5-carboxylate]	400	89	900	81
CC1=C(C(=O)OCc2ccccc2)C(c2ccc(Cl)cc2)CC(=O)N1CCNC(=O)OC(C)(C)C (stereo not shown) [Compound 52, Benzyl 1-[2-(tert-butoxycarbonylamino)ethyl]-4-(4-chlorophenyl)-6-methyl-2-oxo-3,4-dihydropyridine-5-carboxylate]	2500	18		0
CC1=C(C(=O)OCc2ccc(OCCS(=O)(=O)O)cc2)[C@H](c2ccc(Cl)cc2)CC(=O)N1C[C@H]1CCCO1.N [Example 144, Ammonium 2-[4-[[(4S)-4-(4-chlorophenyl)-6-methyl-2-oxo-1-[[(2R)-tetrahydrofuran-2-yl]methyl]-3,4-dihydropyridine-5-carbonyl]oxymethyl]phenoxy]ethanesulfonate]	60	95	100	158

Further compounds by falling EC50 (hTGR5), results first:

EC50 (hTGR5) [nM]	hTGR5 % trans (hTGR5) [%]	EC50 (mTGR5) [nM]	mTGR5 % trans (mTGR5) [%]	Compound
8600	72	4900	83	COCCN1C(=O)CC(c2ccncc2)C(C(=O)OCc2ccccc2OC)=C1C (stereo not shown) [Example 133, (2-methoxyphenyl)methyl 1-(2-methoxyethyl)-6-methyl-2-oxo-4-(4-pyridyl)-3,4-dihydropyridine-5-carboxylate]
1200	71	600	83	COCCN1C(=O)CC(c2ccc(Cl)cc2)C(C(=O)OCc2ccncc2)=C1C (stereo not shown) [Example 107, 4-pyridylmethyl 4-(4-chlorophenyl)-1-(2-methoxyethyl)-6-methyl-2-oxo-3,4-dihydropyridine-5-carboxylate]
1100	63	600	83	COCCN1C(=O)CC(c2ccc(Cl)cc2)C(C(=O)OCc2cccc(C(=O)OC)c2)=C1C (stereo not shown) [Example 96, (3-methoxycarbonylphenyl)methyl 4-(4-chlorophenyl)-1-(2-methoxyethyl)-6-methyl-2-oxo-3,4-dihydropyridine-5-carboxylate]
1000	72	2500	74	CC1=C(C(=O)OCc2ccccn2)[C@H](c2ccc(Cl)cc2)CC(=O)N1C[C@H]1CCCO1 (racemic) [Example 145, 2-pyridylmethyl (4S)-4-(4-chlorophenyl)-6-methyl-2-oxo-1-[[(2R)-tetrahydrofuran-2-yl]methyl]-3,4-dihydropyridine-5-carboxylate and 2-pyridylmethyl (4R)-4-(4-chlorophenyl)-6-methyl-2-oxo-1-[[(2S)-tetrahydrofuran-2-yl]methyl]-3,4-dihydropyridine-5-carboxylate]
500		700		COCCN1C(=O)CC(c2ccc(Cl)cc2)C(C(=O)OCc2cccc(C(F)(F)F)c2)=C1C (stereo not shown) [Example 91, [3-(trifluoromethyl)phenyl]methyl 4-(4-chlorophenyl)-1-(2-methoxyethyl)-6-methyl-2-oxo-3,4-dihydropyridine-5-carboxylate]
350	78	450	77	CC1=C(C(=O)OCc2cccnc2)[C@H](c2ccc(Cl)cc2)CC(=O)N1C[C@H]1CCCO1 (racemic) [Example 146, 3-pyridylmethyl (4S)-4-(4-chlorophenyl)-6-methyl-2-oxo-1-[[(2R)-tetrahydrofuran-2-yl]methyl]-3,4-dihydropyridine-5-carboxylate and 3-pyridylmethyl (4R)-4-(4-chlorophenyl)-6-methyl-2-oxo-1-[[(2S)-tetrahydrofuran-2-yl]methyl]-3,4-dihydropyridine-5-carboxy late]
